For assay [1], the target named is ANT4' (aminoglycoside nucleotidyl transferase 4') (Staphylococcus aureus, UniProt P05057). In words: X-ray crystal structure. Format: binding. The settings on record: binary complex, 0.1-0.2 M MgCl2, pH 7-8; active site.
For assay [2], the target named is ANT4' (aminoglycoside nucleotidyl transferase 4') (Staphylococcus aureus, UniProt P05057, E52D/T130K). In words: biochemical.
For assay [3], the target named is ANT4' (aminoglycoside nucleotidyl transferase 4') (Staphylococcus aureus, UniProt P05057, T130K). In words: biochemical.

With `NC[C@@H]1O[C@H](O[C@H]2[C@@H](O)[C@H](O[C@@H]3[C@@H](O)[C@H](N)C[C@H](N)[C@H]3O[C@H]3O[C@H](CN)[C@@H](O)[C@H](O)[C@H]3N)O[C@@H]2CO)[C@H](N)[C@@H](O)[C@@H]1O` [neomycin], in assay [1], the X-ray crystal structure result is listed as “A binary neomycin complex was also determined in the wild-type ANT4’ enzyme”. Also, the Kd stood at 870 ± 80 nM in assay [2] and 340 ± 30 nM in assay [3].

By Kd is commonly meant a measure of binding affinity in units of concentration. Low readings indicate higher affinity, high ones lower affinity.
